According to patent US5968751A, “Method for detecting the presence of protein C antibody in a fluid sample” (The Scripps Research Institute, priority 1997, dated 1999):
Like-named read-outs stand apart in the source and are kept apart here. No end group written: not given here.

What was measured:
Assay type in all cases: biochemical
Factor Xa = molecular target: T1, Factor Xa (Homo sapiens, UniProt P00742); assay: Factor Xa clotting activity in NHP without added APC (Factor Xa-1 Stage clotting assay); settings: for IC50: read-out: 50% inhibition of Factor Xa clotting activity
T1 construct: purchased Enzyme Research Laboratories, Southbend, Ind
T1 sequence (P00742 41-179 limits assumed): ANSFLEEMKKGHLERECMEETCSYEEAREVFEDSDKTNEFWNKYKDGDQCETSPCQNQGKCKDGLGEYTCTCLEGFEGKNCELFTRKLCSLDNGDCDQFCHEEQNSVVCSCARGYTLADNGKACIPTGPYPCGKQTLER
T1 sequence (P00742 235-488 limits assumed): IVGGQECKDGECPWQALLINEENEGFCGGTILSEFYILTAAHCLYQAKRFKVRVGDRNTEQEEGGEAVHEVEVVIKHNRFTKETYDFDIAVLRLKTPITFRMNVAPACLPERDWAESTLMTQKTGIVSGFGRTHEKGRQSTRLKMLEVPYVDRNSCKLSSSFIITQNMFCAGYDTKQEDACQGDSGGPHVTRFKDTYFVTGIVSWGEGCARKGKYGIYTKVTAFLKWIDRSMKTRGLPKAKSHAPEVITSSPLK
Description: FIG. 1 illustrates factor Xa clotting activity in the presence of PC311-325. The assay was performed as described in Example 5a6). Solid circles with solid lines depict factor Xa activity of 0.15 nM factor Xa in the presence of PC311-325 and solid triangles with dashed lines depict factor Xa activity in the presence of the control peptide.
FIG. 2 illustrates factor Xa clotting activity in the presence of PC142-155. The assay was performed as described in Example 5a6). Solid circles with solid lines depict factor Xa activity of 0.15 nM factor Xa in NHP in the presence of PC142-155 and solid triangles with dashed lines depict factor Xa activity in the presence of the scrambled peptide.
To determine the effect of the APC-inhibiting peptides, PC311-325 and PC142-155, on the amidolytic activity of Factor Xa, amidolytic assays as described for APC in Example 5a3 were performed using 0.15 nM Factor Xa in the presence of increasing amounts of peptide. Peptide PC311-325 ranged in concentration from 0 to 100 μM whereas peptide PC142-155 ranged in concentration from 0 to 50 μM.
For the assay, 100 μl of 0.15 nM factor Xa, prepared in Example 5a5) were admixed with separate aliquots of either peptide prepared in TBS-BSA at pH 7.4 containing 0.02% NaN3 and 2 mM CaCl2 to form APC-peptide admixtures. After maintenance of the admixtures for 30 minutes at 37° C., 50 μl of 2.4 mM S-2222 in the same buffer were admixed to initiate the amidolytic reaction. The hydrolysis of the substrate was measured as described before.
The Factor Xa-1 Stage assay was conducted as described in Example 5a6). In that assay, the IC50 for peptides PT557-571. PT463-478, PT473-487, PT481-495, X404-418, X415-429 and X329-344 were 50, >500, 25, >500, 50, 115, and 500, respectively.

prothrombinase = prothrombinase assay with purified proteins; settings: for inhibition of prothrombinase activity in the absence of Factor Va: up to 200 μM PC311-325, up to 250 μM PC142-155
Description: FIG. 3 illustrates prothrombinase activity in the presence of PC311-325. The assay was performed using 1 nM factor Xa, 0.4 nM factor Va, 1.2 μM prothrombin and […] factor Xa in the absence of factor Va in TBS-BSA, 2.5 mM CaCl2, pH 7.4. Unless otherwise specified all prothrombinase assays were carried out in the presence of 50 μM phospholipid vesicles. In all cases solid symbols indicate prothrombinase activity in the presence of factor Va whereas open symbols indicate prothrombinase activity in the […] of factor Va. Solid circles with solid lines indicate prothrombinase activity (with factor Va) in the presence of PC311-325, solid squares with solid lines indicate prothrombinase activity (with factor Va) in the presence of PC311-325 but in the absence of phospholipid vesicles and solid triangles with dashed lines indicate prothrombinase activity (with factor Va) in the presence of the control peptide. Open circles with solid lines denote prothrombinase activity (without factor Va) in the presence of PC311-325 and open triangles with dashed lines denote prothrombinase activity (without factor Va) in the presence of the control peptide.
FIG. 4 illustrates prothrombinase activity in the presence of PC142-155. The assay was performed using 1 nM factor Xa, 0.4 nM factor Va, 1.2 μM prothrombin and 2.5 nM factor Xa in the absence of factor Va in TSB-BSA, 2.5 mM CaCl2, 50 μM phospholipid vesicles, pH 7.4. In all cases solid symbols indicate prothrombinase activity in the […] of factor Va. Solid circles with solid lines indicate prothrombinase activity (with factor Va) in the presence of PC142-155 and solid triangles with dashed lines indicate prothrombinase activity (with factor Va) in the presence of the scrambled peptide. Open circles with solid lines denote prothrombinase activity (without factor Va) in the presence of PC142-155 and open triangles with dashed lines denote prothrombinase activity (without factor Va) in the presence of the scrambled peptide.
Factor Va was determined via its cofactor activity in the activation of prothrombin by Factor Xa. Amounts of Factor Xa (Enzyme Research Lab.), phospholipid vesicles and prothrombin (purified as described by Stenflo, J. Biol. Chem., 25:355-363, (1976) from a barium citrate plasma precipitate purified by DEAE-sephadex chromatography) present in the assay were such that the rate of prothrombin activation was linearly dependent on factor Va and constant over the time course of the experiment. The molar concentration of Factor Xa was determined by active site titration as described by Chase et al., Biochem. Biophys. Res. Commun., 29:508-514 (1967). The molecular weights and extinction coefficients (E280 nm/mg/ml) used in the calculation of protein concentrations were as follows: prothrombin, 72,000 and 1.44; APC, 62,000 and 1.45; and Factor X, 65,300 and 1.16.
In a typical experiment, Factor Va was assayed as follows. An aliquot of the solution containing Va was admixed to a solution containing prothrombin, phospholipids and calcium in individual wells of a 96-well microtiter plate. Prothrombin activation was initiated with the mixture of Factor Xa to the Va-containing wells to form a reaction admixture. Final concentrations of reagents in the reaction mixture were the following: 1.2 μM prothrombin, 1 nM Xa, 0-0.4 nM Va, 50 μM phospholipid-vesicles (phosphatidylserine 20%/phosphatidylcholine 80%; M/M), in 0.05 M Tris-HCl at pH 7.4 containing 0.1 M NaCl, 0.5% BSA and 2.0 mM CaCl2. The reaction was maintained at 22° C. At one minute time intervals from initiation of the reaction, 20 μl aliquots of the reaction admixture were withdrawn and admixed to wells of an ELISA plate containing 80 μl TBS-BSA and 10 mM EDTA at pH 8.0 resulting in the quenching of the prothrombinase reaction. […]

thrombin = thrombin (Homo sapiens, UniProt P00734); assay: thrombin amidolytic activity towards chromogenic substrates
[1] = NHP, 0.15 nM factor Xa, no added APC

Row | IC50 (Factor Xa; clotting assays in plasma) | inhibition of Factor Xa activity (Factor Xa; 50 μM peptide, NHP) | inhibition of Factor Xa activity (Factor Xa; 50 μM peptide, NHP, listed as scrambled control peptide) | inhibition of prothrombinase activity (prothrombinase; 100 μM peptide, presence of Factor Va) | inhibition of Factor Xa activity (Factor Xa; 100 μM peptide, NHP) | Compound | IC50 (Factor Xa; [1]) | IC50 (prothrombinase; presence of Factor Va, read-out: 50% inhibition of prothrombinase activity) | inhibition of prothrombinase activity in the absence of Factor Va (prothrombinase) | effect on thrombin amidolytic activity towards chromogenic substrates (thrombin) | inhibition of prothrombinase activity in the presence of Factor Va (prothrombinase)
1 | 5 µM |  |  |  |  | CSCC[C@H](NC(=O)[C@H](CCCNC(=N)N)NC(=O)[C@H](CCCCN)NC(=O)[C@H](Cc1c[nH]c2ccccc12)NC(=O)[C@@H]1CCCN1C(=O)[C@H](CCCNC(=N)N)NC(=O)CN)C(=O)N[C@@H](CCC(=O)O)C(=O)N[C@@H](CCCCN)C(=O)N[C@@H](CCCCN)C(=O)N[C@@H](CCCNC(=N)N)C(=O)N[C@@H](CO)C(=O)N[C@@H](Cc1c[nH]cn1)C(=O)N[C@@H](CC(C)C)C(=O)N[C@@H](CS)C(N)=O [PC142-155, Gly-Arg-Pro-Trp-Lys-Arg-Met-Glu-Lys-Lys-Arg-Ser-His-Leu] | 10 µM |  |  |  | 
2 |  |  |  |  |  | KRNRTFVLNFIKIPV-NH2 [PC311-325, Lys-Arg-Asn-Arg-Thr-Phe-Val-Leu-Asn-Phe-Ile-Lys-Ile-Pro-Val] | 7 µM | 8 µM | very little if any significant inhibition | no significant effect | 
3 |  | 40% | 37% | 40% |  | MHKLREGKWRPKSR [Scrambled peptide, reference compound] |  |  |  | no significant effect | small amount of inhibition
4 |  |  |  |  | 30% | VKFTIRVFNPRNLKI [Control Peptide, reference compound] |  |  | very little if any significant inhibition |  | very little if any significant inhibition
